What was measured:
human RORγ = biological target: T1, human RORγ (Homo sapiens, UniProt P51449); assay: In vitro assay of inhibitory effect against RORγ transcriptional activity (GAL4-hRORγ LBD luciferase reporter gene assay in CHO cells); assay type: cell-based; conditions: GAL4-hRORγ LBD luciferase reporter, CHO cells; read-out: LUC EC50 hRORγ
T1 construct: human RORγ, from Ser253 to Lys518; expressed in transfected cells; host or cells: CHO cells (Chinese hamster ovary), transient co-transfection with pG5-Luc
T1 sequence (P51449 253-518): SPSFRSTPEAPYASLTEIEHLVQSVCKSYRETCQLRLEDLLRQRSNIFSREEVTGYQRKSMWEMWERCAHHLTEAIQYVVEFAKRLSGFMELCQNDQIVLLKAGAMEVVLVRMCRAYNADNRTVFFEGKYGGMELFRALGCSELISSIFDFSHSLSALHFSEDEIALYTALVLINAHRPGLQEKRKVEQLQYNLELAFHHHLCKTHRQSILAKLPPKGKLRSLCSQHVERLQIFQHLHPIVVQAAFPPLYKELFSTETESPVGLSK
Procedure, shortened: (§1)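 Luciferase signal, expressed relative to 0.2% DMSO vehicle as 100%, was the read-out after a 2-day compound exposure of CHO cells co-expressing a GAL4-RORγ LBD fusion and a GAL4-responsive reporter. EC50 values came from curve fitting, omitting points showing cytotoxicity.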

mouse RORγ = biological target: T2, mouse RORγ (Mus musculus, UniProt P51450); assay: In vitro assay of inhibitory effect against RORγ transcriptional activity (GAL4-mRORγ LBD luciferase reporter gene assay in CHO cells); assay type: cell-based; conditions: GAL4-mRORγ LBD luciferase reporter, CHO cells; read-out: LUC EC50 mRORγ
T2 construct: mouse RORγ, from Ile251 to Lys516; expressed in transfected cells; host or cells: CHO cells (Chinese hamster ovary), transient co-transfection with pG5-Luc
T2 sequence (P51450 251-516): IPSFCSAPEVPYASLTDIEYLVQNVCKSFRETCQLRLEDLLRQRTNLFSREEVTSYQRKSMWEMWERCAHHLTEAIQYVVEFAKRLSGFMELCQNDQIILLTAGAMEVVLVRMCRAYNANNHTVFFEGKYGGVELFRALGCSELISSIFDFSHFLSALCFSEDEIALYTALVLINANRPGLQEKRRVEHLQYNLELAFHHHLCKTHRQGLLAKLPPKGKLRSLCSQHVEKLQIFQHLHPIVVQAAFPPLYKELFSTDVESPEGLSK
Procedure, shortened: as §1

| Compound | EC50 (human RORγ) | EC50 (mouse RORγ) |
| --- | --- | --- |
| COCCC1=CN(C23CCC(C(=O)O)(C2)C3)C(=O)N[C@@]1(C)c1ccc(CCC(C)(C)C)c(C(F)(F)F)c1 [Example 324] | 47 nM | 36 nM |
| COCCC1=CN([C@H]2CC[C@H](C(=O)O)CC2)C(=O)N[C@@]1(C)c1ccc(CCC(C)(C)C)c(C(F)(F)F)c1 [Example 325] | 174 nM | 60 nM |
| CC(C)C1=CN(CCC(=O)O)C(=O)N[C@@]1(C)c1ccc(C2CCC(F)(F)CC2)c(Cl)c1 [Example 328] | 35 nM | 19 nM |
| COCCC1=CN(C23CCC(C(=O)O)(C2)C3)C(=O)N[C@@]1(C)c1ccc([C@H]2C[C@@H](C(C)C)C2)c(Cl)c1 [Example 330] | 19 nM | 14 nM |
| COCCC1=CN(CCC(=O)O)C(=O)N[C@@]1(C)c1ccc(C2=CCC(C)(C)CC2)c(Cl)c1 [Example 331] | 14 nM | 8 nM |
| COCCC1=CN(c2ccc(C(=O)O)c(OC)c2)C(=O)N[C@@]1(C)c1ccc(C2=CCC(C)(C)CC2)c(Cl)c1 [Example 333] | 23 nM | 13 nM |
| COCCC1=CN(CCC(=O)O)C(=O)N[C@@]1(C)c1ccc(CC2CCCCC2)c(Cl)c1 [Example 335] | 26 nM | 11 nM |
| COCCC1=CN(c2ccc(C(=O)O)c(OC)c2)C(=O)N[C@@]1(C)c1ccc(CC2CCCCC2)c(Cl)c1 [Example 337] | 22 nM | 14 nM |
| COCCC1=CN(c2ccc(C(=O)O)cn2)C(=O)N[C@@]1(C)c1ccc(CC2CCCCC2)c(Cl)c1 [Example 338] | 13 nM | 12 nM |
| CC(C)(C)C1=CN(CCC(=O)O)C(=O)N[C@@]1(C)c1ccc(CC2CCCCC2)c(Cl)c1 [Example 339] | 17 nM | 15 nM |
| COCCC1=CN(C23CC(C(=O)O)(C2)C3)C(=O)N[C@@]1(C)c1ccc(CCC(C)(C)C)c(C(F)(F)F)c1 [Example 340] | 123 nM | 43 nM |
| CC(C)(C)CCc1ccc([C@]2(C)NC(=O)N(C34CC(C(=O)O)(C3)C4)C=C2C2CC(F)(F)C2)cc1C(F)(F)F [Example 341] | 67 nM | 32 nM |
| CC(C)(C)CCc1ccc([C@]2(C)NC(=O)N(CCC(=O)O)C=C2C2CC(F)(F)C2)cc1C(F)(F)F [Example 343] | 38 nM | 19 nM |
| COc1cc(N2C=C(C(C)C)[C@](C)(c3ccc(CCC(C)(C)C)c(C(F)(F)F)c3)NC2=O)ccc1C(=O)O [Example 345] | 42 nM | 23 nM |
| C[C@@]1(c2ccc(CC3CCCCC3)c(Cl)c2)NC(=O)N(CCC(=O)O)C=C1C1CC1 [Example 347] | 109 nM | 35 nM |

Now from value to compound:

| EC50 (human RORγ) | EC50 (mouse RORγ) | Compound |
| --- | --- | --- |
| 58 nM | 40 nM | CC(C)C1=CN(CCC(=O)O)C(=O)N[C@@]1(C)c1ccc(C2=CCC(F)(F)CC2)c(Cl)c1 [Example 327] |
| 74 nM | 50 nM | CC(C)[C@H]1C[C@@H](c2ccc([C@]3(C)NC(=O)N([C@H]4C[C@H](C(=O)O)C4)C=C3C3CC(F)(F)C3)cc2Cl)C1 [Example 329] |
| 12 nM | 13 nM | COCCC1=CN(c2ccc(C(=O)O)cc2)C(=O)N[C@@]1(C)c1ccc(C2=CCC(C)(C)CC2)c(Cl)c1 [Example 332] |
| 22 nM | 14 nM | COCCC1=CN(c2ccc(C(=O)O)cn2)C(=O)N[C@@]1(C)c1ccc(C2=CCC(C)(C)CC2)c(Cl)c1 [Example 334] |
| 10 nM | 7 nM | COCCC1=CN(c2ccc(C(=O)O)cc2)C(=O)N[C@@]1(C)c1ccc(CC2CCCCC2)c(Cl)c1 [Example 336] |
| 43 nM | 28 nM | CC(C)(C)CCc1ccc([C@]2(C)NC(=O)N(c3ccc(C(=O)O)cc3)C=C2C2CC(F)(F)C2)cc1C(F)(F)F [Example 342] |
| 26 nM | 18 nM | COc1cc(N2C=C(C3CC(F)(F)C3)[C@](C)(c3ccc(CCC(C)(C)C)c(Cl)c3)NC2=O)ccc1C(=O)O [Example 346] |
| 46 nM | 39 nM | CC(C)CCOc1ccc([C@]2(C)NC(=O)N(c3ccc(C(=O)O)cc3)C=C2C2CC(F)(F)C2)cc1Cl [Example 348] |
| 63 nM | 45 nM | CC(C)CCOc1ccc([C@]2(C)NC(=O)N(C34CC(C(=O)O)(C3)C4)C=C2C2CC(F)(F)C2)cc1Cl [Example 349] |
| 109 nM | 52 nM | C[C@@]1(c2ccc(OCCC3CC3)c(Cl)c2)NC(=O)N(c2ccc(C(=O)O)cc2)C=C1C1CC(F)(F)C1 [Example 350] |
| 59 nM | 45 nM | CC(C)(C)COc1ccc([C@]2(C)NC(=O)N(c3ccc(C(=O)O)cc3)C=C2C2CC(F)(F)C2)cc1Cl [Example 353] |
| 239 nM | 144 nM | C[C@@]1(c2ccc(OCCC3CC3)c(Cl)c2)NC(=O)N(C23CC(C(=O)O)(C2)C3)C=C1C1CC(F)(F)C1 [Example 354] |
| 113 nM | 52 nM | CC(C)(C)COc1ccc([C@]2(C)NC(=O)N(C34CC(C(=O)O)(C3)C4)C=C2C2CC(F)(F)C2)cc1Cl [Example 355] |
| 21 nM | 15 nM | CC(C)C1=CN(c2ccc(C(=O)O)cc2)C(=O)N[C@@]1(C)c1ccc(CCC(C)(C)C)c(F)c1 [Example 356] |
| 34 nM | 29 nM | C[C@@]1(c2ccc(OCCC3CCC3)c(Cl)c2)NC(=O)N(C23CC(C(=O)O)(C2)C3)C=C1C1CC(F)(F)C1 [Example 357] |

Reference: US10196363B2, “Dihydropyrimidin-2-one compounds and medical use thereof” (JAPAN TOBACCO INC., priority 2014, dated 2019)
